Consider two compounds from the NIST ThermoML archive (doi:10.1021/je400238j).

Numbers after ± are expanded uncertainties.

For the series the following is noted: Liquid, Ebulliometric method (Recirculating still).

As usually defined, the vapor or sublimation pressure is the equilibrium pressure above the liquid or solid. Take `CCO` [ethanol]: the “vapor or sublimation pressure” value runs as follows: (323.46 K) 30 ± 1.3 kPa; (338.72 K) 60 ± 1.5 kPa; (348.56 K) 90 ± 1.8 kPa; (351.51 K) 101.3 ± 2 kPa.
Regarding `CCCCCCCC` [octane], the “vapor or sublimation pressure” value is, setting by setting: (359.76 K) 30 ± 1.3 kPa; (360.06 K) 30 ± 2.5 kPa; (380.43 K) 60 ± 1.5 kPa; (380.94 K) 60 ± 4.7 kPa; (394.09 K) 90 ± 1.9 kPa; (394.6 K) 90 ± 7 kPa. Further, the “vapor or sublimation pressure” value is given as 101.3 ± 2 kPa (398.49 K) and 101.3 ± 7.9 kPa (398.74 K).
